Test [1] concerns the target T1, recombinant human A2a adenosine receptors (Homo sapiens, UniProt P29274).
T1 construct: purchased PerkinElmer (Boston, Mass.); host or cells: HEK 293
The experiment in a line: Radioligand competitive binding, human A2a receptor ([3H]-ZM241385). On the procedure:
(§1) Binding assays were terminated by filtration.
(§2) Membranes (40-70 μg membrane protein), radioligands, and varying concentrations of competing ligands were incubated in triplicate in 0.1 ml buffer HE plus 2 units/mL adenosine deaminase for 2.5 hours at 21° C. The radioligands used for competitive binding assays were: [^3H]-8-cyclopentyl-1,3-dipropyxanthine ([^3H]-DPCPX) (NEN, Boston, Mass.) for A1 and A2b adenosine receptors, [^3H]-4-(2-[7-amino-2-(furyl)(1,2,4)triazole(2,3-a)(1,3,5)triazin-5-ylaminoethyly)phenol ([^3H] ZM241385) for A2a adenosine receptors (Tocris, Bristol, UK), and [^125Iodine]-labeled N6-(4-aminobenzyl)-9-(5-(methylcarbonyl)-β-D-ribofuranosyl) adenine ([^125I]-AB-MECA) or [^3H]-R-N^6-phenylisopropyladenosine (H^3R]-R-PIA) for A3 adenosine receptors (both from NEN, Boston, Mass.). Nonspecific binding was measured in the presence of 10 μM 5′N ethylcarboxamidoadenosine (NECA, from RBI-Sigma, Natick, Mass.) for A1 and A2b receptors, or 10 μM xanthine amino congener (XAC, from RBI-Sigma, Natick, Mass.) for A2a receptors. Binding assays were terminated by filtration over Whatman GF/C glass fiber filters using a BRANDEL cell harvester (Gaithersburg, Md.).

Test [2] deals with T2, recombinant human A3 adenosine receptors (Homo sapiens, UniProt P0DMS8).
T2 construct: expressed in transfected cells; host or cells: HEK 293
T2 sequence (P0DMS8 1-318): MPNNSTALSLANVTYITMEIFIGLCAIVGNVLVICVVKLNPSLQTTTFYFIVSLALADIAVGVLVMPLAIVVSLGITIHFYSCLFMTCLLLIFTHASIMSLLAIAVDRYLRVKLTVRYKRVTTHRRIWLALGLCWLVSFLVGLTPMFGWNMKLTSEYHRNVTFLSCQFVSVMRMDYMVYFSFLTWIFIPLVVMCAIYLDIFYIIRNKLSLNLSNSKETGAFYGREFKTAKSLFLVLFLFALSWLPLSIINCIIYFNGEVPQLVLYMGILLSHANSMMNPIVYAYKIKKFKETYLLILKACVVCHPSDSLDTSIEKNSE
Kind of test: Radioligand binding, human A3 receptor ([125I]-AB-MECA), incl. one-point binding at 10 μM. The conditions noted are these: read-out: Percent (%) Inhibition at 10 μM Antagonist, A3.

In test [3] the target is T3, recombinant rat A2b adenosine receptors (Rattus norvegicus, UniProt P29276).
T3 construct: expressed in transfected cells; host or cells: HEK-293
T3 sequence (P29276 1-332): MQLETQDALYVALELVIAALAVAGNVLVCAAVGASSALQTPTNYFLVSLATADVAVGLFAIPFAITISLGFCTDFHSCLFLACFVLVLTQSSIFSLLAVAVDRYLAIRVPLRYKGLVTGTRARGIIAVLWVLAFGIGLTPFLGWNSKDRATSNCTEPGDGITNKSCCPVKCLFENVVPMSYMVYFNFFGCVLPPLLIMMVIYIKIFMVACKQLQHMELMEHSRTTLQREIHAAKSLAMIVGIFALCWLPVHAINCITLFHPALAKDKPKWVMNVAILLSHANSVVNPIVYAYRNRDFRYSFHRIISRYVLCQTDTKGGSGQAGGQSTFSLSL
The experiment in a line: FLIPR calcium functional assay, rat A2b receptor in HEK-293 cells (NECA). It is filed as cell-based. To be noted: HEK293 cells. As for the experimental part: FIG. 10 depicts FLIPR assay of BG9928 with recombinant […] A2b adenosine receptors stably expressed in HEK-293 cells. FLIPR assays measuring the fraction of control response observed with 10, 100, and 300 nM BG9928 in HEK-293 cells expressing rat A2b adenosine receptors in the presence of increasing concentrations of the agonist (NECA) (top graph). The bottom graph is a Schild analysis of the data presented in the top graph.
Cells were seeded into 96-well tissue culture plates with black walls and clear bottoms, and cultured to an […] confluent monolayer. Without removing the media, an equal volume of dye (from calcium assay kit purchased from Molecular Devices) was added. Cell plates were incubated for 1 hour at 37° C. and were then transferred to the-FLIPR unit (Molecular Devices). […]
The FLIPR integrates an argon laser excitation source, a 96-well pipettor, and a detection system utilizing a CCD (Charged Coupled Device) imaging camera. Fluorescence emissions from the 96 wells were monitored simultaneously at excitation and emission wavelength of 488 and 520 nm, respectively. Fluorescence data were collected at 0.1-sec intervals before and after simultaneous rapid addition of compounds to the 96-well plate. Results were read as relative fluorescence units (RFU). […]

Test [4] addresses T4, human A2B adenosine receptors (Homo sapiens, UniProt P29275).
T4 sequence (P29275 1-332): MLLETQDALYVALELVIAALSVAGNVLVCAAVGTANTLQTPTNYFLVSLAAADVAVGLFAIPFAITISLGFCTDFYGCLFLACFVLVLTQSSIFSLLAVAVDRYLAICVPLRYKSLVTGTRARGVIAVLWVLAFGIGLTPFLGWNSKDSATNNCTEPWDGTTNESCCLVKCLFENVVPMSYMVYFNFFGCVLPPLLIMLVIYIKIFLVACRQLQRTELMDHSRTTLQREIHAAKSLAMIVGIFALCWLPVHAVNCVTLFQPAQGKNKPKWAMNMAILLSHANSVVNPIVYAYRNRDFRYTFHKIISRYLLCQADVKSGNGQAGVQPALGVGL
Kind of test: Radioligand competitive binding, human A2b receptor. Also on record: expressed in transfected cells; host or cells: HEK-293. The conditions noted are these: HEK 293 membranes. On the procedure:
as §1, §2

The structures appear in SMILES notation.

T1 sequence (P29274 whole entry): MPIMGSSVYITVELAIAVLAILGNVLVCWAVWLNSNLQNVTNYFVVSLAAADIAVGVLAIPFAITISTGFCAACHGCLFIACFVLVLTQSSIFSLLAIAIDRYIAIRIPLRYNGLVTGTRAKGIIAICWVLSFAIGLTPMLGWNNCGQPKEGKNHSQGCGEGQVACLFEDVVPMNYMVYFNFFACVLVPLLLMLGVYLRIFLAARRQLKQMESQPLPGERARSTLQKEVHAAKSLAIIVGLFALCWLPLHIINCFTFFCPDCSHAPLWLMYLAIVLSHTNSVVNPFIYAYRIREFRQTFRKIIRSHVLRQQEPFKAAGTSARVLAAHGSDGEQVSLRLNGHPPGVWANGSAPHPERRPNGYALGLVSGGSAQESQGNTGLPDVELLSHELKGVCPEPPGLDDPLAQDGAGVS

On to `CCCn1c(=O)c2[nH]c(C34CCC(CCC(=O)O)(CC3)CC4)nc2n(CCC)c1=O` [BG 9928, 3-[4-(2,6-dioxo-1,3-dipropyl-2,3,6,7-tetrahydro-1H-purin-8-yl)-bicyclo[2.2.2]oct-1-yl]-propionic acid], for which the results for the inhibition constant Ki in test [1] and in test [4] were 4060 nM and 88.5 ± 21 nM, respectively. Also, the inhibition (usually the percentage by which the read-out fell short of the control) at 10 µM in test [2] stood at 30%. The pA2 (usually the negative logarithm of the molar antagonist concentration that doubles the agonist concentration needed for the same response) in test [3] (rat A2b, Schild analysis) came to 6.59. Also, the Kb in test [3] (rat, null methodology) came out at 257 nM.

The values are drawn from patent US20050203065A1, “Method of treating ischemia reperfusion injury using adenosine receptor antagonists” (priority 2002, published 2005).
